Results from patent US4717713A, “Controlled release liquid pharmaceutical” (Research Corporation, priority 1983, dated 1988).

Experiment: In vitro dissolution of theophylline from solutions/suspensions (U.S.P. paddle, simulated gastric fluid, 37° C.)
Format: physicochemical
Conditions: Table II; 50 R.P.M.; no polymers present
Procedure: Standard U.S.P. Teflon coated stainless steel paddles and round bottom glass beakers were employed. The desired stirrer speed was maintained by commercial feedback control circuitry (50 RPM is illustrated by way of example). The dissolution medium was 1000 ml of Simulated Gastric Fluid U.S.P. without enzyme in most cases, kept at 37° C. by a water bath with a heat/circulator unit.
Suspension was placed into the filled beaker near the surface by 0.27 cm inner radius glass tube attached by plastic tubing to a three ml disposable syringe. Two ml of suspension was pulled up into the tube, the exterior wiped clean, one ml was extruded into the dissolution medium beneath the surface, and the suspension separated from the glass tube by cutting with a razor blade. The technique produced uniform cylindrical matrices in most cases.
In all cases, the total amount of drug released into the dissolution medium was less than ten percent of that needed to saturate the medium, so that sink conditions were maintained.
A precise volume was withdrawn near the top of the dissolution medium for each sample. The volume ranged from 0.1 ml to 3.0 ml. […]
Standard curves were concentrated for theophylline in simulated gastric fluid USP. Samples were diluted to read within the linear concentration range and absorbance was read at 272 nm using a single beam spectrophotometer.

Cn1c(=O)c2[nH]cnc2n(C)c1=O [Theophylline Powder, theophylline]
T 50% (time for 50% theophylline to dissolve): < 5 min
